Reference: ChEMBL document CHEMBL1201862, “PubChem BioAssay data set” (2004)
The source made the active and inactive calls.

Assays:
[1] = molecular target: T1, Apoptotic protease-activating factor 1 (Homo sapiens, UniProt O14727); assay type: functional
T1 sequence (O14727 whole entry): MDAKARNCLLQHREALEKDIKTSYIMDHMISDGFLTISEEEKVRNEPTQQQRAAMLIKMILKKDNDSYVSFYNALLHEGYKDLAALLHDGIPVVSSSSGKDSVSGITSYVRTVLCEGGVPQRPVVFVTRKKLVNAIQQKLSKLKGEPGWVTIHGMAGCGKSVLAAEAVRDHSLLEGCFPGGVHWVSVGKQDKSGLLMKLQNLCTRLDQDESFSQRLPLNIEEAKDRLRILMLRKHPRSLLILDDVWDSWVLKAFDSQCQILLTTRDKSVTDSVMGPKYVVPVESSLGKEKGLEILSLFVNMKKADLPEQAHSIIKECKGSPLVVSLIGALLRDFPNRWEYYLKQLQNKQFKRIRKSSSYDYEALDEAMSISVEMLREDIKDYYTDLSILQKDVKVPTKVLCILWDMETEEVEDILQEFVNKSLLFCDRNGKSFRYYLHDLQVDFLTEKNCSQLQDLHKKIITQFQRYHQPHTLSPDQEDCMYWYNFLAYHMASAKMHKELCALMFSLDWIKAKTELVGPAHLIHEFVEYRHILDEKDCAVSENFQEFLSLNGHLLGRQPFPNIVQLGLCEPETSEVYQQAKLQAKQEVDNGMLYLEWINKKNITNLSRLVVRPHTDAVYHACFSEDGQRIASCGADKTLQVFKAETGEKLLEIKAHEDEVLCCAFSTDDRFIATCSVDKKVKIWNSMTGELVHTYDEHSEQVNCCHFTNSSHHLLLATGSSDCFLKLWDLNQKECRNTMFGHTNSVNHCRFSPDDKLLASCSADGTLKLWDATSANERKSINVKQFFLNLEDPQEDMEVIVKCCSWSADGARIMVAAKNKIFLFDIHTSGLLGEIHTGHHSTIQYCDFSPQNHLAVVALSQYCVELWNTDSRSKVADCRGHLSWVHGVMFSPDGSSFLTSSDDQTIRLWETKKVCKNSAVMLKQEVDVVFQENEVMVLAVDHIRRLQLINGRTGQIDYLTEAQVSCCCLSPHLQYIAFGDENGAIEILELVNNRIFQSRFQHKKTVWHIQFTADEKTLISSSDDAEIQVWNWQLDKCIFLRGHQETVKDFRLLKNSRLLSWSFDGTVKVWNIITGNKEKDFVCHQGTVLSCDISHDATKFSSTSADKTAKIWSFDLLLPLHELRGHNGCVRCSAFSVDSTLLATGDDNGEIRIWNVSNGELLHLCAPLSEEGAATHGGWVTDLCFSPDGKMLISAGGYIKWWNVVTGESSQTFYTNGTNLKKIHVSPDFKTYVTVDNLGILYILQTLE

[2] = molecular target: T2, Sentrin-specific protease 7 (Homo sapiens, UniProt Q9BQF6); assay type: functional;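 note: Luminescence-based dose-response confirmation of ultra-high-throughput screening hits, measuring inhibition of SENP7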
T2 sequence (Q9BQF6 whole entry): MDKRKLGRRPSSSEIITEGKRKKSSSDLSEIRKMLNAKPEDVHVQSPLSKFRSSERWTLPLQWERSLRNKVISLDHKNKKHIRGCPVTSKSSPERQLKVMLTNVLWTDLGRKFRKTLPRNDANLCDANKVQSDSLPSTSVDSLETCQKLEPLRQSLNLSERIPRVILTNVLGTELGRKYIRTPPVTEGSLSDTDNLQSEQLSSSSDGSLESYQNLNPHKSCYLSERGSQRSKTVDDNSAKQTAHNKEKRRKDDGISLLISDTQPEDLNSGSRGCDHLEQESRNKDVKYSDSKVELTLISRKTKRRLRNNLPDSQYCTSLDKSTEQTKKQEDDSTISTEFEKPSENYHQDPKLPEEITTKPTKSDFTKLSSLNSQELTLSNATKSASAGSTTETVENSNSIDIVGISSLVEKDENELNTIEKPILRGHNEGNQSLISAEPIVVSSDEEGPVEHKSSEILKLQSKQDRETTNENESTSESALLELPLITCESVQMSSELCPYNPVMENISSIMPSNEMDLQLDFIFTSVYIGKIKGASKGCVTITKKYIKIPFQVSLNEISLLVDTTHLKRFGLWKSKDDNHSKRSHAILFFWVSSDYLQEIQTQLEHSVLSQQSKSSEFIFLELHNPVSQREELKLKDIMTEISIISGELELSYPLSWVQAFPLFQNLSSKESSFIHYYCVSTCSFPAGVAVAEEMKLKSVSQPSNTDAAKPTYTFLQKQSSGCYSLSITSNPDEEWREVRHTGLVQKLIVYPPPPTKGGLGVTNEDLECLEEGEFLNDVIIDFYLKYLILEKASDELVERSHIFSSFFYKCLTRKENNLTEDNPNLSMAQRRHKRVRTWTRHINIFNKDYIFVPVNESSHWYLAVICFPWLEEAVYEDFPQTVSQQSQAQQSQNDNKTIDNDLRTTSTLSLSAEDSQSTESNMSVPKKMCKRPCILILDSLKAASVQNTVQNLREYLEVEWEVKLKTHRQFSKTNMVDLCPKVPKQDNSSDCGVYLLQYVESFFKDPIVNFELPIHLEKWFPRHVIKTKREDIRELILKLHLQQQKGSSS

[3] = molecular target: Tyrosine-protein kinase Srms (Homo sapiens, UniProt Q9H3Y6); assay type: functional;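 note: SRMS measured as one member of a kinome-wide kinase profiling panel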
[4] = molecular target: Glycogen synthase kinase-3 alpha (Homo sapiens, UniProt P49840); assay type: functional;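 note: GSK3A result taken from a broad kinome-wide kinase panel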
Chain of Glycogen synthase kinase-3 alpha (P49840 whole entry): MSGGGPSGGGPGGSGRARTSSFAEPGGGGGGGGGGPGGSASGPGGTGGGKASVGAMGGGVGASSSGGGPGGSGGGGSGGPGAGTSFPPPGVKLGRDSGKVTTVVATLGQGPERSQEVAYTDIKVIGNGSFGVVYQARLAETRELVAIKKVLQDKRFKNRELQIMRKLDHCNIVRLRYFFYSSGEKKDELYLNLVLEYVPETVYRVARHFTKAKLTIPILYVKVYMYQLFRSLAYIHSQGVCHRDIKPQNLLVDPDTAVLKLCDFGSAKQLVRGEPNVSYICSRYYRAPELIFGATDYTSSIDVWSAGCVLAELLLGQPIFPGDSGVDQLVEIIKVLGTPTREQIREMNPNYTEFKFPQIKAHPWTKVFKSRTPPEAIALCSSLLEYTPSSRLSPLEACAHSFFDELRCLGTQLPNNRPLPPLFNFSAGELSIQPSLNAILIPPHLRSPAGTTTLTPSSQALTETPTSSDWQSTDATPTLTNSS

[5] = molecular target: Serine/threonine-protein kinase TAO1 (Homo sapiens, UniProt Q7L7X3); assay type: functional
[6] = molecular target: Dual specificity tyrosine-phosphorylation-regulated kinase 3 (Homo sapiens, UniProt O43781); assay type: functional;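 note: measured as one member of a broad kinase panel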
Chain of Dual specificity tyrosine-phosphorylation-regulated kinase 3 (O43781 whole entry): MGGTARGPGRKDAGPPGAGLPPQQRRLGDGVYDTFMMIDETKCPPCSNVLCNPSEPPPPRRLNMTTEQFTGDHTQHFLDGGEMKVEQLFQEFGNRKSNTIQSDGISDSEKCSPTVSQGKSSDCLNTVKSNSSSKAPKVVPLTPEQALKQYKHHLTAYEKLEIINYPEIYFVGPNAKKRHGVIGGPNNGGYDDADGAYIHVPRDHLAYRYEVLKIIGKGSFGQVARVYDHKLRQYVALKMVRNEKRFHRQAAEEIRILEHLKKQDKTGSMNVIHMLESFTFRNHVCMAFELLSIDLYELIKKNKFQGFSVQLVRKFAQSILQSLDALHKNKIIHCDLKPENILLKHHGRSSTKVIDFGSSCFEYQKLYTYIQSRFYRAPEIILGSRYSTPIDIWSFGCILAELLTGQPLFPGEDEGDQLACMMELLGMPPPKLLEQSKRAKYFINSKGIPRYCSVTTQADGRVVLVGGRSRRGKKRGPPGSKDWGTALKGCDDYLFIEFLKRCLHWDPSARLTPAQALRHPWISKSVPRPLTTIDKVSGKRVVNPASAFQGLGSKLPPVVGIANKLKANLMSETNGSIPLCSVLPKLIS

[7] = molecular target: Fibroblast growth factor receptor 3 (Homo sapiens, UniProt P22607); assay type: functional
Chain of Fibroblast growth factor receptor 3 (P22607 whole entry): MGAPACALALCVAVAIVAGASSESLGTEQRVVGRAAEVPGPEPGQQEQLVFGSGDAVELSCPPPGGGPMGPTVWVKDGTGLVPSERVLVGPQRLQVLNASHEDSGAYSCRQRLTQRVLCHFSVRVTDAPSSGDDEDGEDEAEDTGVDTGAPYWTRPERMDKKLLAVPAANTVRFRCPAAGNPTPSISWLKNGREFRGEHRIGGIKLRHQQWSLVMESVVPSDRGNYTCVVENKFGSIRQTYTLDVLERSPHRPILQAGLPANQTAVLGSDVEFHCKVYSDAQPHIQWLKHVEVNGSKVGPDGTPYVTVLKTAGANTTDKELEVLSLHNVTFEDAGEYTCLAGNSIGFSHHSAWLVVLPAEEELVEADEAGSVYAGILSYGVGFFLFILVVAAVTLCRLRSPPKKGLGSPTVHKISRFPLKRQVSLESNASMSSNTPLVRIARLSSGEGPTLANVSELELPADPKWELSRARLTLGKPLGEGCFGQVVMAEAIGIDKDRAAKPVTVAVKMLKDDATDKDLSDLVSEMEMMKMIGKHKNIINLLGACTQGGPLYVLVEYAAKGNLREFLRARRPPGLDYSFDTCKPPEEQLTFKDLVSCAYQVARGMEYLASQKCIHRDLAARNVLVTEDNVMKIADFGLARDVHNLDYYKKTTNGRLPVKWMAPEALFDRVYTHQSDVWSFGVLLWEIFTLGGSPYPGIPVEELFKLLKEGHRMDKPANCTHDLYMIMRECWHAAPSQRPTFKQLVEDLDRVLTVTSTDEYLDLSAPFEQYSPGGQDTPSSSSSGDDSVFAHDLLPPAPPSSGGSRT

[8] = molecular target: Interleukin-1 receptor-associated kinase 1 (Homo sapiens, UniProt P51617); assay type: functional;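 note: IRAK1 tested as one member of a kinome panel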
Chain of Interleukin-1 receptor-associated kinase 1 (P51617 whole entry): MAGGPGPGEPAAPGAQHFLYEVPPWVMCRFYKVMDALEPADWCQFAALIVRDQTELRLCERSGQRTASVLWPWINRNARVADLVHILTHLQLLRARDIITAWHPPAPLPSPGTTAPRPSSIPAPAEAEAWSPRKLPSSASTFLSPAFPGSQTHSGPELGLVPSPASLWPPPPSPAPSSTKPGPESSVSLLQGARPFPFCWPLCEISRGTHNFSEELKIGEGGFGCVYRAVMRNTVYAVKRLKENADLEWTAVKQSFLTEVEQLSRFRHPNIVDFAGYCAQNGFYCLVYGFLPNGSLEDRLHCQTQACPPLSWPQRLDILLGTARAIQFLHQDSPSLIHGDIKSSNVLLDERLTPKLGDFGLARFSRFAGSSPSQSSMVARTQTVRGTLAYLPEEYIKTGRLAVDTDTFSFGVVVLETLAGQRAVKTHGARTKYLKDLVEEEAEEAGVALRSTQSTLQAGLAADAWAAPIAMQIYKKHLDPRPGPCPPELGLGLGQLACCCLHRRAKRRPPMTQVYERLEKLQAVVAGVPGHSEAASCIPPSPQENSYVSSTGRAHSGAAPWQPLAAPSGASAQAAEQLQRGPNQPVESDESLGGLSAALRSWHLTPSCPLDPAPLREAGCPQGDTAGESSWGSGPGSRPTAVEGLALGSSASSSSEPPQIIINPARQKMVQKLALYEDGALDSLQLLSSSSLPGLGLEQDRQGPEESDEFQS

[9] = molecular target: Vascular endothelial growth factor receptor 1 (Homo sapiens, UniProt P17948); assay type: functional;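 note: measured within a kinome-wide profiling panel, FLT1 as the panel member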
[10] = molecular target: Tyrosine-protein kinase ITK/TSK (Homo sapiens, UniProt Q08881); assay type: functional;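 note: affinity for ITK measured as one member of a broad kinase panel profiling binding across the kinome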
Chain of Tyrosine-protein kinase ITK/TSK (Q08881 whole entry): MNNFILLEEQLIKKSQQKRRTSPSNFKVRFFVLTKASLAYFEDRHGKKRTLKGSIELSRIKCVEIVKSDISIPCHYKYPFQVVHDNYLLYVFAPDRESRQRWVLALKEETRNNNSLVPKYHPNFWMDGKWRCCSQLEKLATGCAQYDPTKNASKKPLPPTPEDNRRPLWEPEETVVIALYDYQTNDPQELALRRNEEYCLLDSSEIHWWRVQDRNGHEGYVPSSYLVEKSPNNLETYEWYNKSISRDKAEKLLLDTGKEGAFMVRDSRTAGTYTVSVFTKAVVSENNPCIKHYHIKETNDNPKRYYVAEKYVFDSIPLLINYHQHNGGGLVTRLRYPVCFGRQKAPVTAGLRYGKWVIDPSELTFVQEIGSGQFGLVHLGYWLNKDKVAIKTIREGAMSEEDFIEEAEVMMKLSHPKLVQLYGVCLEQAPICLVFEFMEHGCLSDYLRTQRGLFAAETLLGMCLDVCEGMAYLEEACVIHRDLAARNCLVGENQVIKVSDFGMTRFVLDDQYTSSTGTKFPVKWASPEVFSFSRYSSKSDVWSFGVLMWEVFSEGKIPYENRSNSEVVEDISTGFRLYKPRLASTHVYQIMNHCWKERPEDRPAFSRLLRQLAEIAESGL

[11] = molecular target: cAMP-dependent protein kinase catalytic subunit alpha (Homo sapiens, UniProt P17612); assay type: functional
[12] = molecular target: Mitogen-activated protein kinase 12 (Homo sapiens, UniProt P53778); assay type: functional;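 note: measured as one member of a kinome-wide kinase profiling panel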
Chain of Mitogen-activated protein kinase 12 (P53778 whole entry): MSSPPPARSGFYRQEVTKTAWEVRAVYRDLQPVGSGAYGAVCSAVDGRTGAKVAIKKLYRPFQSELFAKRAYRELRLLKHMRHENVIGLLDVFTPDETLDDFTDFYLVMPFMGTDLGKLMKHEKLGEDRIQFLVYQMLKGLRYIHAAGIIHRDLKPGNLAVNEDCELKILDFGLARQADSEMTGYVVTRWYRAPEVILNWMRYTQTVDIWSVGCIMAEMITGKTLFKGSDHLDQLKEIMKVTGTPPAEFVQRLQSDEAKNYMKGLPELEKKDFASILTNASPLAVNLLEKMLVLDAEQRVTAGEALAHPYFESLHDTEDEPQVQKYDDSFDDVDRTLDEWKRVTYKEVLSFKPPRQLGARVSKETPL

ORF 73 = ORF 73 (Human herpesvirus 8, UniProt O40947); experiment: KSHV LANA DNA-binding disruption – biochemical, fluorescence polarization, cherry-picked samples, dose response (AID 504725); set-up: species or system Human gammaherpesvirus 8;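 note: fluorescence polarization of a labeled DNA duplex reporting LANA DNA binding; potency is for inhibitors that block LANA binding to the DNA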
Chain of ORF 73 (O40947 whole entry): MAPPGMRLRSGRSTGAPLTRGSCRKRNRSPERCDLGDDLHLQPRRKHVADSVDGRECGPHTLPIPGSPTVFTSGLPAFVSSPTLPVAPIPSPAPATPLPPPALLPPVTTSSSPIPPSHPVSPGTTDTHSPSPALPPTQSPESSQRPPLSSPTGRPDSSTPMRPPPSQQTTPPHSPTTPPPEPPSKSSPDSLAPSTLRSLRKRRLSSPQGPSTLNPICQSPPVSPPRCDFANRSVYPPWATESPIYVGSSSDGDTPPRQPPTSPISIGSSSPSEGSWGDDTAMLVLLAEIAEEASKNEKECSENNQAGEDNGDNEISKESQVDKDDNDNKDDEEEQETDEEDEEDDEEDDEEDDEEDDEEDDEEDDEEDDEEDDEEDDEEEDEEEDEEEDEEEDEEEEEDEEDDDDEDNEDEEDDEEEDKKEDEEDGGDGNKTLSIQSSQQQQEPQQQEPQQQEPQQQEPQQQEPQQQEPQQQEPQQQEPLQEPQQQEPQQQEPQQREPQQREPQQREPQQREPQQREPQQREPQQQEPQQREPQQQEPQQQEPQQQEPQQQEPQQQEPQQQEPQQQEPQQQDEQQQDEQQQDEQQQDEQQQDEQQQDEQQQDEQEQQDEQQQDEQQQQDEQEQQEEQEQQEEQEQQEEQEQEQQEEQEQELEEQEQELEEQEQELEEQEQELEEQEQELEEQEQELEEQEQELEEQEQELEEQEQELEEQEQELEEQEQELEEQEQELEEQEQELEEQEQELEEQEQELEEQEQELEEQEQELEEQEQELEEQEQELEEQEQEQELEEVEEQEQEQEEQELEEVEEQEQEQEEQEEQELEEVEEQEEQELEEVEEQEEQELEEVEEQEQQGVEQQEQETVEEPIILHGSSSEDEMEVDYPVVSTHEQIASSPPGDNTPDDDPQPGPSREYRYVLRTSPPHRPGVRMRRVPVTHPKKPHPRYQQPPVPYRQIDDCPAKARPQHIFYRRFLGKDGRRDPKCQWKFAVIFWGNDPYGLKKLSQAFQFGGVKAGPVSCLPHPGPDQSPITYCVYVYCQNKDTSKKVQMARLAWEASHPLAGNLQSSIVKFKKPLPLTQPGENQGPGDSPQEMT

[13] = molecular target: Bifunctional protein GlmU (Mycobacterium tuberculosis, UniProt P9WMN3); experiment: Inhibitors of Mycobacterial Glucosamine-1-phosphate acetyl transferase (GlmU). Secondary screen.; set-up: species or system Mycobacterium tuberculosis H37Rv

CC(=O)N(/N=C1\Sc2ccccc2C1=O)c1ccccc1C
IC50 [1]: 5.13 µM (active) | IC50 [2]: 3.79 µM (active)

Cc1cccc(NC(=O)Nc2ccc3c(c2)CCc2sc4ncnc(N)c4c2-3)c1
Ki [3]: > 1.58 µM (inactive) | Ki [4]: > 7.94 µM (inactive) | Ki [5]: 3.98 µM (active) | Ki [6]: > 6.31 µM (inactive) | Ki [7]: > 2 µM (inactive) | Ki [8]: > 7.94 µM (inactive) | Ki [9]: 0.00631 µM (active) | Ki [10]: > 1.58 µM (inactive) | Ki [11]: > 7.94 µM (inactive) | Ki [12]: > 6.31 µM (inactive)

N/C(=N\N=C/c1ccc(-c2ccc(O)c(C(=O)O)c2)o1)N[N+](=O)[O-]
AC50 (ORF 73): 111 µM (active) | IC50 [13]: 28.4 µM (active)
